≈ marks a conversion by molar mass, not a printed value. Where “and” joins values, the source holds several entries; their conditions need not be identical. Equal values may be shown once.
What was measured:
Type in all cases: cell-based
E. coli (D22) = assay: MIC, outer-membrane-permeable lpxC point mutant; conditions: Escherichia coli
Excerpt: The outer membrane of Gram-negative bacteria is a robust permeability barrier that prevents many antibiotics from entering Gram-negative cells[46],[47]. The outer leaflet of this outer membrane is primarily composed of the unique lipid lipopolysaccharide (LPS). Strains of E. coli with point mutations in genes coding for LPS biosynthetic enzymes have been isolated that enable some antibiotics to effectively pass through the outer membrane enabling activity against these strains of E. coli[48]–[54]; one such strain is E. coli (D22) which contains a point mutation in the lpxC gene.
The medium employed for the assay was Mueller Hinton II Broth (MHB II; Becton-Dickinson, Sparks, MD, USA). Agar plates used for the organisms were trypticase soy agar plus 5% sheep blood (BD; Sparks, MD, USA). MIC assay plates were prepared using the CLSI broth microdilution procedure. Automated liquid handlers (Multidrop 384, Biomek 2000 and Biomek FX) were used to conduct serial dilutions and liquid transfers. A standardized inoculum of each organism was prepared per CLSI methods. Suspensions were prepared to equal a 0.5 McFarland standard, followed by a 1:20 dilution in test media. […] The microplates were viewed from the bottom using a plate viewer and the MIC was read. The MIC was recorded as the lowest concentration of drug that inhibited visible growth of the organism. […]

[1] = tested on: Primary Skin Fibroblasts cells; assay: Cell culture toxicity, Alamar Blue HS fluorescence; conditions: Suppl Fig 9, Primary Skin Fibroblasts cells
S. aureus (VISA) = assay: MIC, clinical and laboratory strains
Protocol: (§1) The medium employed for the assay was Mueller Hinton II Broth (MHB II; Becton-Dickinson, Sparks, MD, USA). Agar plates used for the organisms were trypticase soy agar plus 5% sheep blood (BD; Sparks, MD, USA). MIC assay plates were prepared using the CLSI broth microdilution procedure. Automated liquid handlers (Multidrop 384, Biomek 2000 and Biomek FX) were used to conduct serial dilutions and liquid transfers. A standardized inoculum of each organism was prepared per CLSI methods. Suspensions were prepared to equal a 0.5 McFarland standard, followed by a 1:20 dilution in test media. The inocula were dispensed into sterile reservoirs divided by length (Beckman Colter) and the Biomek 2000 was used to inoculate the plates. Daughter plates were placed on the Biomek 2000 work surface in reverse orientation so that inoculation took place from low to high drug concentration. The Biomek 2000 delivered 10 μL of the diluted suspension into each well. These inoculations yielded a final cell concentration in the daughter plates of ~5 × 10^5 colony-forming units/mL in each well. The wells of the daughter plates ultimately contained 185 μL of broth, 5 μL of drug solution, and 10 μL of bacterial inoculum. Plates were covered with a sterile lid on the top plate, placed in plastic bags, and incubated at 35 °C for ~18 h. The microplates were viewed from the bottom using a plate viewer and the MIC was read. The MIC was recorded as the lowest concentration of drug that inhibited visible growth of the organism.

S. epidermidis (MSSE) = assay: MIC, clinical and laboratory strains
Protocol: as §1

S. aureus (MRSA) = assay: MIC, clinical and laboratory strains
Protocol: as §1

S. epidermidis (VISE) = assay: MIC, clinical and laboratory strains
Protocol: as §1

S. epidermidis (MRSE) = assay: MIC, clinical and laboratory strains
Protocol: as §1

S. aureus (MSSA) = assay: MIC, clinical and laboratory strains
Protocol: as §1

`CC(C)c1cc(Cl)ccc1-c1cc(-c2nnn[nH]2)c(-c2ccc(Cl)cc2C(C)C)s1` [DNM0547] was tested, and the MIC (E. coli (D22)) was 32 µg/mL (≈ 70 µM), the “Fluorescence (FI)” value ([1]; Conc. 2 ng/ml) was 921 FI and 814 FI and 995 FI and the “Fluorescence (FI)” value ([1]; Conc. 100 ng/ml) was 911 FI and 909 FI and 816 FI and 747 FI. The “Fluorescence (FI)” value ([1]; Conc. 2500 ng/ml) was 895 FI and 904 FI and 819 FI and 790 FI, the “Fluorescence (FI)” value ([1]; Conc. 5000 ng/ml) was 907 FI and 820 FI and 922 FI and 909 FI and the “Fluorescence (FI)” value ([1]; Conc. 20000 ng/ml) was 577 FI and 548 FI and 542 FI and 552 FI. The “Fluorescence (FI)” value ([1]; Conc. 40000 ng/ml) was 62 FI and 57 FI and 54 FI, the “Fluorescence (FI)” value ([1]; Conc. 100000 ng/ml) was 7 FI and 5 FI and the MIC (S. aureus (VISA); S. aureus (VISA) 1724) was 2 µg/mL (≈ 4.37 µM). It also gave an MIC (S. aureus (VISA); S. aureus (VISA) 2012) of 2 µg/mL (≈ 4.37 µM), an MIC (S. aureus (VISA); S. aureus (VISA) 2013) of 2 µg/mL (≈ 4.37 µM) and an MIC (S. aureus (VISA); S. aureus (VISA) 2014) of 2 µg/mL (≈ 4.37 µM). It also gave an MIC (S. aureus (VISA); S. aureus (VISA) 2015) of 2 µg/mL (≈ 4.37 µM), an MIC (S. aureus (VISA); S. aureus (VISA) 2016) of 2 µg/mL (≈ 4.37 µM) and an MIC (S. aureus (VISA); S. aureus (VISA) 2017) of 2 µg/mL (≈ 4.37 µM). It also gave an MIC (S. aureus (VISA); S. aureus (VISA) 2018) of 2 µg/mL (≈ 4.37 µM), an MIC (S. aureus (VISA); S. aureus (VISA) 2019) of 1 µg/mL (≈ 2.19 µM) and an MIC (S. aureus (VISA); S. aureus (VISA) 2123) of 2 µg/mL (≈ 4.37 µM). It also gave an MIC (S. aureus (VISA); S. aureus (VISA) NRS1/1723) of 2 µg/mL (≈ 4.37 µM), an MIC (S. epidermidis (MSSE); S. epidermidis (MSSE) 3234) of 4 µg/mL (≈ 8.74 µM) and an MIC (S. epidermidis (MSSE); S. epidermidis (MSSE) 3602) of 2 µg/mL (≈ 4.37 µM). For the same compound, the MIC (S. epidermidis (MSSE); S. epidermidis (MSSE) 3609) was 4 µg/mL (≈ 8.74 µM), the MIC (S. epidermidis (MSSE); S. epidermidis (MSSE) 3617) was 1 µg/mL (≈ 2.19 µM) and the MIC (S. epidermidis (MSSE); S. epidermidis (MSSE) 3620) was 2 µg/mL (≈ 4.37 µM). The MIC (S. epidermidis (MSSE); S. epidermidis (MSSE) 3621) was 1 µg/mL (≈ 2.19 µM), the MIC (S. aureus (MRSA); S. aureus (MRSA) 2167) was 1 µg/mL (≈ 2.19 µM) and the MIC (S. aureus (MRSA); S. aureus (MRSA) 2168) was 1 µg/mL (≈ 2.19 µM). For the same compound, the MIC (S. aureus (MRSA); S. aureus (MRSA) 2169) was 2 µg/mL (≈ 4.37 µM), the MIC (S. aureus (MRSA); S. aureus (MRSA) 2170) was 1 µg/mL (≈ 2.19 µM) and the MIC (S. aureus (MRSA); S. aureus (MRSA) 2171) was 1 µg/mL (≈ 2.19 µM). It also gave an MIC (S. aureus (MRSA); S. aureus (MRSA) 2293) of 2 µg/mL (≈ 4.37 µM), an MIC (S. aureus (MRSA); S. aureus (MRSA) 2294) of 1 µg/mL (≈ 2.19 µM) and an MIC (S. aureus (MRSA); S. aureus (MRSA) 2295) of 1 µg/mL (≈ 2.19 µM). The MIC (S. aureus (MRSA); S. aureus (MRSA) 2296) was 1 µg/mL (≈ 2.19 µM), the MIC (S. aureus (MRSA); S. aureus (MRSA) 2297) was 2 µg/mL (≈ 4.37 µM) and the MIC (S. aureus (MRSA); S. aureus (MRSA) 3880) was 1 µg/mL (≈ 2.19 µM). The MIC (S. aureus (MRSA); S. aureus (MRSA) 5373) was 1 µg/mL (≈ 2.19 µM), the MIC (S. aureus (MRSA); S. aureus (MRSA) 5666) was 1 µg/mL (≈ 2.19 µM) and the MIC (S. aureus (MRSA); S. aureus (MRSA) 5702) was 1 µg/mL (≈ 2.19 µM). It also gave an MIC (S. aureus (MRSA); S. aureus (MRSA) 5999) of 1 µg/mL (≈ 2.19 µM), an MIC (S. aureus (MRSA); S. aureus (MRSA) 6165) of 1 µg/mL (≈ 2.19 µM) and an MIC (S. aureus (MRSA); S. aureus (MRSA) 6169) of 1 µg/mL (≈ 2.19 µM). For the same compound, the MIC (S. aureus (MRSA); S. aureus (MRSA) 6174) was 1 µg/mL (≈ 2.19 µM), the MIC (S. aureus (MRSA); S. aureus (MRSA) 6311) was 1 µg/mL (≈ 2.19 µM) and the MIC (S. aureus (MRSA); S. aureus (MRSA) 6312) was 2 µg/mL (≈ 4.37 µM). The MIC (S. aureus (MRSA); S. aureus (MRSA) 6313) was 1 µg/mL (≈ 2.19 µM), the MIC (S. aureus (MRSA); S. aureus (MRSA) 6315) was 1 µg/mL (≈ 2.19 µM) and the MIC (S. aureus (MRSA); S. aureus (MRSA) 6320) was 1 µg/mL (≈ 2.19 µM). The MIC (S. aureus (MRSA); S. aureus (MRSA) 6498) was 2 µg/mL (≈ 4.37 µM), the MIC (S. aureus (MRSA); S. aureus (MRSA) 6501) was 2 µg/mL (≈ 4.37 µM) and the MIC (S. aureus (MRSA); S. aureus (MRSA) 6505) was 1 µg/mL (≈ 2.19 µM). For the same compound, the MIC (S. aureus (MRSA); S. aureus (MRSA) 6506) was 2 µg/mL (≈ 4.37 µM), the MIC (S. aureus (MRSA); S. aureus (MRSA) NRS382/2119) was 1 µg/mL (≈ 2.19 µM) and the MIC (S. aureus (MRSA); S. aureus (MRSA) NRS383/2120) was 1 µg/mL (≈ 2.19 µM). The MIC (S. aureus (MRSA); S. aureus (MRSA) NRS384/2011) was 2 µg/mL (≈ 4.37 µM), the MIC (S. epidermidis (VISE); S. epidermidis (VISE) 2020) was 8 µg/mL (≈ 17.5 µM) and the MIC (S. epidermidis (VISE); S. epidermidis (VISE) 2021) was 1 µg/mL (≈ 2.19 µM). It also gave an MIC (S. epidermidis (VISE); S. epidermidis (VISE) 2022) of 2 µg/mL (≈ 4.37 µM), an MIC (S. epidermidis (VISE); S. epidermidis (VISE) 2023) of 4 µg/mL (≈ 8.74 µM) and an MIC (S. epidermidis (VISE); S. epidermidis (VISE) 2024) of 32 µg/mL (≈ 70 µM). The MIC (S. epidermidis (VISE); S. epidermidis (VISE) 2025) was 4 µg/mL (≈ 8.74 µM), the MIC (S. epidermidis (MRSE); S. epidermidis (MRSE) 3679) was 2 µg/mL (≈ 4.37 µM) and the MIC (S. epidermidis (MRSE); S. epidermidis (MRSE) 3680) was 2 µg/mL (≈ 4.37 µM). The MIC (S. epidermidis (MRSE); S. epidermidis (MRSE) 3681) was 1 µg/mL (≈ 2.19 µM), the MIC (S. epidermidis (MRSE); S. epidermidis (MRSE) 3683) was 2 µg/mL (≈ 4.37 µM) and the MIC (S. epidermidis (MRSE); S. epidermidis (MRSE) 3745) was 8 µg/mL (≈ 17.5 µM). It also gave an MIC (S. epidermidis (MRSE); S. epidermidis (MRSE) 3746) of 2 µg/mL (≈ 4.37 µM), an MIC (S. epidermidis (MRSE); S. epidermidis (MRSE) 3747) of 2 µg/mL (≈ 4.37 µM) and an MIC (S. aureus (MSSA); S. aureus (MSSA) 2127) of 1 µg/mL (≈ 2.19 µM). It also gave an MIC (S. aureus (MSSA); S. aureus (MSSA) 6167) of 2 µg/mL (≈ 4.37 µM), an MIC (S. aureus (MSSA); S. aureus (MSSA) 6168) of 1 µg/mL (≈ 2.19 µM) and an MIC (S. aureus (MSSA); S. aureus (MSSA) 6170) of 1 µg/mL (≈ 2.19 µM). It also gave an MIC (S. aureus (MSSA); S. aureus (MSSA) 6316) of 2 µg/mL (≈ 4.37 µM), an MIC (S. aureus (MSSA); S. aureus (MSSA) 6317) of 1 µg/mL (≈ 2.19 µM) and an MIC (S. aureus (MSSA); S. aureus (MSSA) 6318) of 1 µg/mL (≈ 2.19 µM). For the same compound, the MIC (S. aureus (MSSA); S. aureus (MSSA) 6499) was 2 µg/mL (≈ 4.37 µM), the MIC (S. aureus (MSSA); S. aureus (MSSA) 6500) was 1 µg/mL (≈ 2.19 µM) and the MIC (S. aureus (MSSA); S. aureus (MSSA) 6502) was 1 µg/mL (≈ 2.19 µM).

From publication PMC11436758, “Computer-aided drug design to generate a unique antibiotic family” (Nature Communications, 2024)
